The values below come from patent publication US5221675A, “Aza-spirocyclic compounds that enhance cholinergic neurotransmission” (Abbott Laboratories, priority 1991, dated 1993).

The structures appear in SMILES notation.

One series relates to acetylcholine receptors. The note with it: chronic administration; cited from earlier work.
Series [1] deals with nigro-striatal dopamine system. The note with it: chronically administered, after destruction of nigro-striatal dopamine system; cited from earlier work.
The conditions of series [2]: in vivo, cited from earlier work.
The subject of a further series is rats. The note with it: acutely and chronically administered; cited from earlier work.
The subject of another series is muscarinic receptors. As to the kind of experiment: Initial screening at muscarinic receptors. The class given is binding. To be noted: words, on Table 1 data.
The test system of another series is CD1 mice. Description: Locomotor activity in automated activity monitors. The class given is in vivo, mouse. How it is done:
Adult male CD1 mice (n=8/group) were injected with the compound of Example 1 or RS-86 (0, 0.3, 1.0, or 3.0 mg/kg, i.p.) approximately 45 minutes prior to placement in automated activity monitors (Omnitech; Columbus, Ohio). These enclosures, measuring 40×40×42 cm, are equipped with a series of photocells and generate measurements of a variety of locomotor activities.

For series [3], the system named is Rat striatal muscarinic receptors. Description: Agonist intrinsic activity: inhibition of forskolin-activated [3H]cAMP in dissociated rat striatum. The class given is cell-based.
Description: Rat striatal muscarinic receptors are coupled to the inhibition of the conversion of adenosine triphosphate (ATP) to cyclic adenosine monophosphate (cAMP). […] The ATP stores in dissociated rat striatum were labeled with [^3 H]adenine and [^3 H]-cAMP levels were elevated with 10 um forskolin.
Another series deals with M2 muscarinic receptor (Rattus norvegicus, UniProt P10980). The class given is binding. The note with it: read-out: Ki @ M2 RECEPTOR; Table 1; [3H]QNB, rat pons-medulla, 25° C., pH 7.4.
M2 muscarinic receptor, sequence (P10980 whole entry): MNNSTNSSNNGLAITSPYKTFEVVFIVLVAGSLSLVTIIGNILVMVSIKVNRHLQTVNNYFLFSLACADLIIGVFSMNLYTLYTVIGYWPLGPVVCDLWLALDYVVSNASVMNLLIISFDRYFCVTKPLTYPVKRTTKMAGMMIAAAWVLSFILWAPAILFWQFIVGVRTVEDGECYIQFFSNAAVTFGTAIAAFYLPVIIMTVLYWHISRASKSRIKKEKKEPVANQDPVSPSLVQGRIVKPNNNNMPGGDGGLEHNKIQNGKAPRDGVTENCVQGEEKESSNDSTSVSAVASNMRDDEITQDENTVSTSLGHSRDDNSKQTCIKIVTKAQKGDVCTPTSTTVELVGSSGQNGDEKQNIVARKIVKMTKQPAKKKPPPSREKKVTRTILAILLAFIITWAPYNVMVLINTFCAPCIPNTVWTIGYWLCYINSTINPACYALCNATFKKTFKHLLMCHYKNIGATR
The target of another series is T1, M1 muscarinic receptor (Rattus norvegicus, UniProt P08482).
T1 construct: from tissue; host or cells: adult rat fronto-parietal cortex membranes (homogenate)
T1 sequence (P08482 1-460): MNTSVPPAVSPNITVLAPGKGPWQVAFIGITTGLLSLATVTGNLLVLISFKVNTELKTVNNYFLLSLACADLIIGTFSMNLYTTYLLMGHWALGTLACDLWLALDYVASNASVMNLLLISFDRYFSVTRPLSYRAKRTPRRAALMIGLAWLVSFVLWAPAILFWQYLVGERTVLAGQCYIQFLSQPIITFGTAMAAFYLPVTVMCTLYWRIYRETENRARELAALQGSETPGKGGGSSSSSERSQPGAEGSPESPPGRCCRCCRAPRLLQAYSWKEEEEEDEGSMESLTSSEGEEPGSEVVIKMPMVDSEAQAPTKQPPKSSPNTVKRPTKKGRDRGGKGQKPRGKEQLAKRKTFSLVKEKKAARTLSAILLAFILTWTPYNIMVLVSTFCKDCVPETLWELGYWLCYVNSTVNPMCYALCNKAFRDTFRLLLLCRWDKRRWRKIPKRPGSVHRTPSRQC
Description: Competition with [3H]pirenzepine at cortical M1 muscarinic receptors. The class given is binding. The note with it: Table 1; [3H]pirenzepine, rat fronto-parietal cortex, 25° C., pH 7.4; read-out: Ki @ M1 RECEPTOR

The next series concerns male CD1 mice. As to the kind of experiment: Toxicology / side-effects. The class given is in vivo. To be noted: for Fatalities: 0.3, 1.0, 3.0 mg/kg i.p.; for Tolerability: 0.3 and 1.0 mg/kg i.p.
The next series relates to DBA and C57BL/6 mice. Description: Mouse plus (water) maze, spatial learning. The class given is in vivo. To be noted: 0.3 or 1.0 mg/kg i.p. How it is done:
The mouse plus maze probes spatial learning processes (Decker and McGaugh, Brain Res. 1989, 477:29). Animals are placed at the terminus of one arm of a four-arm maze submerged in opaque (powdered milk) 25° C. water. Their task is to locate a stationary escape platform hidden at the end of one arm of the maze. The platform remains in the same position across all 4 days of testing. Six daily trials are conducted, during which choice accuracy (correct or incorrect) and latency to escape (maximum=60 seconds) are recorded. Animals failing to escape within 60 seconds are gently guided to the platform, where they are allowed to sit for 20 seconds.
Accordingly, adult male DBA and C57 mice (n=~10/group) were treated with the compound of Example 1 or RS-86 (0, 0.3, or 1.0 mg/kg, i.p.) approximately 45 minutes prior to 4 consecutive daily water maze sessions. Choice accuracy was assessed daily, with day 4 accuracy serving as the primary measure of learning.

For the next series, the system named is DBA mice. As to the kind of experiment: Inhibitory (passive) avoidance test, 72 hour retention. The class given is in vivo, mouse. An excerpt:
The inhibitory (or sometimes called passive) avoidance (IA) test is a well accepted animal model of learning/memory used to assess the activity of novel muscarinic agonists to enhance cognitive function (Wanibuchi et al., Eur. J. Pharmacol., 1990, 187:479). Animals are placed in the illuminated (12×14×11 cm) portion of a two-chambered box, from which they enter through a guillotine door to the larger (24×13.5×12 cm) dark compartment of the box. Entry to the dark compartment is accompanied by a mild (0.5 mA), brief (2 seconds) footshock. Initial latencies to cross are recorded, with an imposed 60 second ceiling. Following a 72 hour retention interval, animals are returned to the illuminated chamber, and latency to return to the dark compartment is again recorded, with a ceiling of 180 seconds. No footshock is administered on the test day.
Previous studies have indicated a retention deficit in DBA versus CD1 mice in the 72 hour retention model. Accordingly, adult male DBA mice (n=~15/group) were injected with either the compound of Example 1 or the reference standard RS-86 (0, 0.3, 1.0, or 3.0 mg/kg, i.p.) approximately 45 minutes prior to the training described above. Saline-treated adult male CD1 mice (n=15) served as controls.

The test system of another series is cortical receptors. To be noted: cited from earlier work.
The subject of series [4] is cholinergic receptors located in the heart and cortical tissues. To be noted: words; cited from earlier work.
The test system of a further series is cardiac receptors. The note with it: cited from earlier work.
For series [5] the following is noted: rat; cited from earlier work.
Another series deals with rat brain receptor sites. The note with it: cited from earlier work.
Series [6] relates to parietotemporal cortex of humans. The note with it: cited from earlier work.

In the case of `CN1CCC[C@H]1c1cccnc1` [nicotine], in the series with acetylcholine receptors, the “Effect on affinity of acetylcholine for the receptor” value is “without affecting the affinity of acetylcholine for the receptor” and the “Up-regulation of the number of acetylcholine receptors” value is 50-100%. Also, the “Action on neuronal and vascular functions” value in [1] is “regenerative/protective action”. In addition, the Oral bioavailability entry in series [2] (po) was “poor oral bioavailability”. In addition, the Pharmacokinetics entry in series [2] is listed as “unfavorable pharmacokinetics”. Besides, the Cognitive function result with rats is “enhance cognitive function in rats”.

Take `CC1OC2(CCN(C)CC2)CN1C=O.O=C(O)C(=O)O` (stereo not drawn) [Example 1, 2,8-Dimethyl-1-oxa-3-formyl-3,8-diazaspiro[4,5]decane hydrogen oxalate]: in the series with muscarinic receptors, the “Binding to M1 and M2 muscarinic receptors” value is “binds to both M1 and M2 muscarinic receptors”. Besides, the “Mean horizontal activity counts” value in the series with CD1 mice (all doses (0, 0.3, 1.0, 3.0 mg/kg i.p.)) is “equivalent across all doses”. Further, the “Separation of hypoactivity from cognitive enhancement versus RS-86” value in the series with CD1 mice (compared with RS-86) is listed as “more favorable separation of hypoactivity from the desired activity of cognitive enhancement”. In [3] (Rattus norvegicus, read-out: INTRINSIC ACTIVITY (% relative to carbacol)), the Emax turned out to be 53%. Besides, in [3] (rat striatum), the “Agonist character at central muscarinic receptor” value is given as “central muscarinic receptor agonist with partial agonist activity”. In addition, the Ki came out at 30 µM on M2 muscarinic receptor and 32 µM at M1 muscarinic receptor. Further, the Signs observed entry with male CD1 mice (3.0 mg/kg i.p.) was “some dyspnea and a mild decrease in spontaneous activity”. For the same compound, the Fatalities entry in the series with male CD1 mice is “No fatalities”. Moreover, in the series on male CD1 mice, the Tolerability entry was “well tolerated”. Also, the “Side-effects in general versus RS-86” value in the series on male CD1 mice (compared with RS-86) was “more benign side-effects”. Further, the “Enhancement of learning (choice accuracy)” value with DBA and C57BL/6 mice is listed as “modest, albeit statistically non-significant, enhancement of learning”. In addition, the “Performance of DBA mice versus chance level” value in the series on DBA and C57BL/6 mice (from second day of testing) was “consistently performed above chance levels”. Moreover, the “Latencies across dose groups” value with DBA mice (0, 0.3, 1.0, 3.0 mg/kg i.p., DBA mice) is given as “latencies were equivalent across all groups”. Also, the “72 hour retention deficit of DBA mice” value in the series on DBA mice (1.0 mg/kg i.p., U=171.5, z=2.04, p<0.05) is “significant attenuation of the observed retention deficit”; in the series with DBA mice (3.0 mg/kg i.p., U=172, z=2.0, p<0.05), “significant attenuation of the observed retention deficit”.

For the compound `CCN1C(=O)CC2(CCN(C)CC2)C1=O` [RS-86], in the series with cortical receptors, the “Agonism at cortical receptors” value is “partial agonist”. Further, the Horizontal activity entry in the series on CD1 mice (3.0 mg/kg i.p., F (3,28)=29.17, p<0.00001) is “profound and significant [F (3,28)=29.17, p<0.00001] reduction in horizontal activity”. The “Activity versus animals dosed with the compound of Example 1” value in the series with CD1 mice (0.3 or 1.0 mg/kg i.p.) is recorded as “did not significantly differ”. In addition, in the series on male CD1 mice (3.0 mg/kg i.p.), the “Classic signs of cholinostimulation” value is “salivation, lacrimation, urination, defecation, and tremor”; the “Hypothermic response versus similar dose of Example 1” value is recorded as “greater hypothermic response”; the Signs observed entry is “dyspnea and decreased activity”. Moreover, in the series on male CD1 mice, the Fatalities result was “No fatalities” and the Tolerability entry is reported as “well tolerated”. Besides, the Potency and selectivity entry in [4] was “poor potency and lack of selectivity”. Moreover, the “Water maze performance in DBA or C57 mice” value with DBA and C57BL/6 mice is “no beneficial effect on water maze performance”. In addition, the “Animals that completely failed to cross to the dark compartment in training” value in the series with DBA mice (3.0 mg/kg i.p.) is “nine”. Also, the “Training latencies relative to all other groups” value with DBA mice (3.0 mg/kg i.p., F (4,72)=25.8, p<0.00001) was “elevated relative to all other groups”. Besides, the “72 hour retention deficit of untreated DBAs” value in the series on DBA mice (RS-86 0.3-3.0 mg/kg i.p.) was “apparently eliminated the 72 hour retention deficit”. The “Agonism at cardiac receptors” value in the series with cardiac receptors is recorded as “full agonist”.

Turning to `O=C1NC(=O)C2(CCNCC2)N1c1ccccc1` [1-phenyl-1,3,8-triazaspiro[4,5]decan-2,4-dione], the Metabolite of fluspirilene entry in series [5] is recorded as “major product of the metabolism of the neuroleptic drug, fluspirilene”.

For `CC1CCCCN1` (racemic) [(+)isomer of (±)2-methylpiperidine, (+)2-methylpiperidine], the “Binding of nicotinic ligand” value in the series with rat brain receptor sites is recorded as “enhances the binding of nicotinic ligand”.

For `CNC1(C)C2CCC(C2)C1(C)C` (stereo not drawn) [mecamylamine], in series [6], the Resting cortical perfusion entry is on record as “reduce resting cortical perfusion”.

Broadly, the Ki is the equilibrium dissociation constant of an inhibitor or competing ligand from its target.
